Source: US6699716B2, “In vivo induction for enhanced function of isolated hepatocytes” (priority 1999, dated 2004)

Columns and labels:
CYPIIB1 [1] = experiment: PROD conversion to resorufin by in vivo induced hepatocytes; design: species or system porcine; conditions: for Degree of isozyme activity increase over noninduced control: PROD substrate, hepatocytes induced in vivo
Experimental: (§1) Cells were isolated using a modification of the Seglen method which has been described earlier (Seglen, P., Preparation of isolated rat liver cells, In Meth. in Cell. Bio. (D M Prescott, ed.), vol. 13. Academic Press (NY, N.Y.), 1976.). Briefly, the exposed liver was cannulated and perfused in situ with cold Lactated Ringers (Baxter, Deerfield, Ill.) at 250 ml/minute before excision and transport to the lab. The liver was quickly warmed and perfused with 0.2% EDTA at 37° C. This was followed by perfusion of 1 mg/ml collagenase (Life Technologies, Grand Island, N.Y.) at 37° C. until digestion appeared complete (mean digestion 22±4 min). Further digestion was stopped with the addition of cold HBSS (BioWhittaker, Walkersville, Md.) supplemented with 10% NBCS (Hyclone, Logan, Utah). Undigested tissue and gall bladder were excised and the remainder of the tissue passed through 200 and 100 micron stainless steel sieves (Fisher Scientific, Pittsburgh, Pa.). The cell suspension was washed twice and the cell pellet resuspended in culture media. Viability was determined by Trypan blue exclusion and Calcein AM staining (Molecular Probes, Eugene, Oreg.). Hepatocytes derived from the isolation process following in vivo induction show lower viability when compared to control conditions (77% n=7 versus 89% n=40), yet the cells detoxify xenobiotics at a greater rate. Immediately after isolation, 10^6 cells were assayed for total protein with the BCA kit (Pierce Biochemical, Rockford, Ill.).
(§2) Cells were plated onto 60 mm tissue culture dishes at a density of 2×10^6 cells per dish (Corning, Corning, N.Y.) in Williams' E media supplemented with 1% NBCS (newborn calf serum), 4.5 g/L glucose, 0.5 U/ml bovine insulin, 7 ng/ml glucagon, 7.5 μg/ml hydrocortisone, 10 mM HEPES (Sigma), 20 ng/ml EGF, […] (Life Technologies), 10 IU/ml penicillin and 10 μg/ml streptomycin (BioWhittaker). Hepatocytes were incubated at 37° C. in humidified 10% CO2. Culture medium was changed on day 1 post-isolation and then every 2-3 days. Media samples taken at each change were stored for assay of albumin and urea.

CYPIA2 [2] = experiment: MROD conversion to resorufin by in vivo induced hepatocytes; design: species or system porcine; conditions: for Degree of isozyme activity increase over noninduced control: MROD substrate, hepatocytes induced in vivo, 10 to 15 mg/kg
Experimental: (§3) To measure increased isozyme activity in both in vivo and in vitro induced cultures compared to non-induced controls, both in vivo induced and in vitro induced cultures from Example 1 were incubated with EROD, MROD, PROD or BROD (Molecular Probes) at 5 μM (in Williams' E media without serum and phenol red). Dicumarol (80 μM, Sigma) was included in the incubation to limit cytosolic degradation of the resorufin end product. Samples were analyzed in a Turner 450 fluorometer at 540ex and 585em nm. Resorufin formation was quantified using a standard curve that was linear from 0.5 to 130 nM and data are expressed as net resorufin gain over background fluorescence. In this assay, conversion of the alkoxyresorufins to resorufin corresponds to an increase in fluorescence such that the ratio of fluorescences, or activity, corresponds directly to the level of P450 activity of a particular set of isoenzymes.

CYPIA1 [3] = experiment: EROD conversion to resorufin by in vivo induced hepatocytes; design: species or system porcine; conditions: for Degree of isozyme activity increase over noninduced control: EROD substrate, hepatocytes induced in vivo, 10 to 15 mg/kg
Experimental: as §1
as §2, with “Media samples taken at each change were stored for assay of albumin and urea.” left out

CYPIIB1 [4] = experiment: Diazepam clearance by in vivo induced hepatocytes; design: species or system porcine
Experimental: as §1, with “Ill.). […]” for “Ill.).”
Diazepam clearance was assayed in the cultures of Example 1 using a method similar to that of Jauregui et al. Xenobiotic induction of P-450 PB-4 (IIB1) and P-450c (IA1) and associated monooxygenase activities in primary cultures of adult rat hepatocytes. […] This reverse phase HPLC run was conducted at a flow rate of 1.0 ml/min through a micro-Bondpak C18 column (Waters) with absorbance set at 254 nm. […]

CYPIIB1 [5] = experiment: PROD conversion to resorufin by in vitro induced hepatocytes; format: cell-based, porcine
Experimental: (§4) For comparison, in vitro induced hepatocyte cultures were prepared. Hepatocytes were procured using the method described above but from non-induced pigs and then induced in culture. Cells were plated onto 60 mm tissue culture dishes (Corning, Corning, N.Y.) in Williams' E media supplemented with 1% NBCS (newborn calf serum), 4.5 g/L glucose, 0.5 U/ml bovine insulin, 7 ng/ml glucagon, 7.5 μg/ml hydrocortisone, 10 mM HEPES (Sigma), 20 ng/ml EGF, […] (Life Technologies), 10 IU/ml penicillin and 10 μ/ml streptomycin (BioWhittaker). […]
as §3, with “Dicumarol (80 μM, Sigma) was included in the incubation to limit cytosolic degradation of the resorufin end product.” left out

CYPIA2 [6] = experiment: MROD conversion to resorufin by in vitro induced hepatocytes; format: cell-based, porcine; conditions: in vitro induction 5 μM for 24 hours; two million hepatocytes, day 2 of culture
Experimental: as §4
as §3, with “Dicumarol (80 μM, Sigma) was included in the incubation to limit cytosolic degradation of the resorufin end product.” left out

CYPIA1 [7] = experiment: EROD conversion to resorufin by in vitro induced hepatocytes; format: cell-based, porcine
Experimental: For comparison, in vitro induced hepatocyte cultures were prepared. Hepatocytes were procured using the method described above but from non-induced pigs and then induced in culture. Cells were plated onto 60 mm tissue culture dishes (Corning, Corning, N.Y.) in Williams' E media supplemented with 1% NBCS (newborn calf serum), 4.5 g/L glucose, 0.5 U/ml bovine insulin, 7 ng/ml glucagon, 7.5 μg/ml hydrocortisone, 10 mM HEPES (Sigma), 20 ng/ml EGF, […] (Life Technologies), 10 IU/ml penicillin and 10 μ/ml streptomycin (BioWhittaker). Experimental conditions were treated with culture medium containing any one of the following: 2 mM phenobarbital (PB; Sigma) for 96 hours, 50 μM β-naphthoflavone (BNF; Sigma) for 24 hours, or 5 μM 3-methlycholanthrene (3-MC; Sigma) for 24 hours.
as §3

CYPIIB2 [8] = experiment: BROD conversion to resorufin by in vivo induced hepatocytes; design: species or system porcine
Experimental: as §1, §2

CYPIA2 [9] = experiment: 7-Ethoxycoumarin metabolism by in vivo induced hepatocytes; design: species or system porcine
CYPIA2 [10] = experiment: Lidocaine clearance by in vivo induced hepatocytes; design: species or system porcine; conditions: Lidocaine substrate (clearance), 40 to 80 mg/kg
Experimental: A series of in vivo induction studies utilized various doses and injection regimes ranging from 40 to 80 mg/kg on days −4 to −1 with phenobarbital in PBS; 3-methlycholanthrene (in DMSO or benzene);or, β-naphthoflavone (in DMSO) given at 5 to 15 mg/kg on days −3, −2 and/or −1 prior to surgical removal of the liver. Yorkshire/Hampshire crossbred pigs weighing 8.3±3.0 kg were obtained from E M Parsons (Hadley, Mass.). All injections of induction agents were administered into the peritoneal cavity.
Cells were isolated using a modification of the Seglen method which has been described earlier (Seglen, P., Preparation of isolated rat liver cells, In Meth. in Cell. Bio. (D M Prescott, ed.), vol. 13. Academic Press (NY, N.Y.), 1976.). […] Viability was determined by Trypan blue exclusion and Calcein AM staining (Molecular Probes, Eugene, Oreg.). […]
Lidocaine (Paddock Laboratories Inc., Minneapolis, Minn.) clearance was assayed using a modification of the protocol of Nyberg et al. Pharmacokinetic analysis verifies P450function in in vitro and in vivo application of a bioartificial liver, ASAIO, 39:M252-M256, 1993. […] The reverse phase HPLC was carried out with a flow rate of 1 ml/minute on a Microsorb C8 column (Rainin Instrument Co., Woburn, Mass.) at room temperature and monitored at 214 nm. […]

CYPIIB2 [11] = experiment: BROD conversion to resorufin by in vitro induced hepatocytes; format: cell-based, porcine
Experimental: as §4
as §3, with “Dicumarol (80 μM, Sigma) was included in the incubation to limit cytosolic degradation of the resorufin end product.” left out

[12] = tested on: CYPIIB2 and CYPIIB1 isozymes; experiment: Maintenance of isozyme function four days after plating of in vivo induced hepatocytes; conditions: in vivo induced with 40 to 80 mg/kg once each day, 4 doses
Experimental: as §3

[13] = three daily injections in vivo, day one of culture, 2x10^6 cells on 60 mm dish

`Cc1ccc2cc3c(ccc4ccccc43)c3c2c1CC3` [3-Methylcholanthrene, 3-methylcholanthrene] was tested, and the “Degree of isozyme activity increase over noninduced control” value (“Degree of isozyme activity increase” below) (CYPIIB1 [1]; 10 to 15 mg/kg) was 2 to 10-fold, the “upregulation of CYPIIB1 (PROD)” value (CYPIIB1 [1]; in vivo administration) was 8.4 fold and the “Degree of isozyme activity increase” value (CYPIA2 [2]) was 2 to 10-fold. For the same compound, the “increase over noninduced controls” value (CYPIA2 [2]; in vivo induction, MROD) was 7.6 fold, the “Degree of isozyme activity increase” value (CYPIA1 [3]) was 10 to 20-fold and the “increase over noninduced controls” value (CYPIA1 [3]; in vivo induction, EROD) was 24 fold. The “Degree of isozyme activity increase” value (CYPIIB1 [4]; Diazepam substrate (clearance), 10 to 15 mg/kg) was 2 to 10-fold, the “Degree of isozyme activity increase” value (CYPIIB1 [4]; Diazepam substrate (clearance), 10 to 15 mg/kg, listed as 3-methlycholanthrene) was 2 to 10 fold and the “effect on CYPIIB1 (upregulation)” value (CYPIIB1 [5]; in vitro induction) was “not observed”. The “conversion rate relative to control rate” value (CYPIA2 [6]) was 4 fold and the “conversion rate relative to control rate” value (CYPIA1 [7]; in vitro induction 5 μM for 24 hours, two million hepatocytes, day 2 of culture) was 18 fold.
With `O=c1cc(-c2ccccc2)oc2ccc3ccccc3c12` [Beta-Naphthoflavone, beta-naphthoflavone] the “Degree of isozyme activity increase” value (CYPIA2 [2]) was 2 to 10-fold, the “Degree of isozyme activity increase” value (CYPIA1 [3]) was 2 to 10-fold and the “increase in function over control metabolic conversion of EROD” value (CYPIA1 [7]; in vitro induction 24 hours, 50 μM) was 14.8 fold. For the same compound, the “resorufin formed per minute” value (CYPIA1 [7]; in vitro induction 24 hours, 50 μM, EROD, control 0.27 nM) was 4.0 nM.
With `CCC1(c2ccccc2)C(=O)NC(=O)NC1=O` [Phenobarbital, phenobarbital] the “Degree of isozyme activity increase” value (CYPIIB2 [8]; BROD substrate, hepatocytes induced in vivo, 40 to 80 mg/kg) was 20 to 100-fold, the “rate of resorufin formation from the BROD substrate” value (CYPIIB2 [8]; in vivo induction, day 1) was “approximately 10.4 nM resorufin per minute” and the “increase in function following in vivo induction” value (CYPIIB2 [8]; [13]) was 70 fold. The “rate relative to average control rate of resorufin formed on day 1 from BROD” value (CYPIIB2 [8]; versus control 0.15 nM per minute) was 69 times, the “Degree of isozyme activity increase” value (CYPIIB1 [1]; 40 to 80 mg/kg) was 2 to 40-fold and the “upregulation following in vivo induction” value (CYPIIB1 [1]; [13]) was 38 fold. The “Degree of isozyme activity increase” value (CYPIA2 [9]; 7-EC substrate, hepatocytes induced in vivo, 40 to 80 mg/kg) was 20 to 50-fold, the umbelliferone production rate (CYPIA2 [9]; in vivo induced, 24 hours after adding 7-ethoxycoumarin, noninduced 2.58±1.9) was 346±41.4 nM per hour and the “Degree of isozyme activity increase” value (CYPIA2 [10]) was 10 to 20-fold. The “Degree of isozyme activity increase” value (CYPIA2 [10]; listed as phenobarbital) was 10 to 20 fold, the “Degree of isozyme activity increase” value (CYPIIB1 [4]; Diazepam substrate, 40 to 80 mg/kg) was 20 to 50-fold and the “increase in function over noninduced controls” value (CYPIIB2 [11]; in vitro induction 96 hours (2 mM), BROD, 3 hours incubation, day 4 of culture) was 8.4 fold. For the same compound, the “rate of resorufin formation from the BROD substrate” value (CYPIIB2 [11]; in vitro induction, day 4) was “about 0.33 nM resorufin formed per minute”, the “higher rate of PROD metabolism following treatment” value (CYPIIB1 [5]; in vitro induction 96 hours (2 mM), PROD, 3 hours incubation) was 3 fold and the “reduction of cytochrome P450 activity four days after plating” value [12] was “about 50%”.
